Experimental data reported in PMC12612973, “Inhibition of Human Amylin Aggregation: In Silico and In Vitro Studies” (ACS Omega, 2025).
Read-outs that look alike come from different tables or passages of the source.

Tests used:
human amylin (hIAPP) [1] = molecular target: T1, human amylin (hIAPP) (Homo sapiens, UniProt P10997); experiment: Dynamic light scattering (DLS) assay of amylin aggregation; assay type: biochemical; conditions: compound 10 μM, amylin 15 μM, 36 h incubation, 3 trials; read-out: DLS inhibition % (mean ± SEM)
T1 construct: purchased Bachem USA
T1 sequence (P10997 34-70 limits assumed): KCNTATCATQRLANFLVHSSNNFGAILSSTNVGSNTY
Method: A stock solution of amylin (1 mM) (purchased from Bachem USA), peptide sequence: […] amide (with disulfide bond between Cys2 and Cys7), was prepared in 100% hexafluoroisopropyl alcohol (HFIP) (purchased from Sigma-Aldrich) and stored at −20 °C. , Aliquots of amylin peptide were filtered through a 0.22 μm filter from the stock solution and freeze-dried. For kinetic experiments, 15 μM of amylin was prepared in 50 mM Tris-HCl buffer (pH 7.4), as investigated in previous studies by Chaari et al., , Samples of amylin were prepared in the presence or absence of inhibitors. Each compound was dissolved in DMSO and further diluted with the buffer used to solubilize the amylin. The final mixture contained 15 μM amylin, 10 μM of the test compound, 2% DMSO or 15 μM amylin, and 2% DMSO without the compound (negative control). Also 15 μM amylin, 10 μM of oleuropein aglycone and 2% DMSO was used as a positive control. The prepared solutions were incubated under physiological conditions (pH 7.4 and 37 °C) for amylin aggregation. Samples were incubated for 36 h to test for amylin aggregation, and measurements were conducted at different time points.
DLS (Zetasizer, Malvern) was used at a wavelength of 633 nm to measure the average diffusion coefficient distribution of amylin particles and the aggregation percentage. Samples were diluted 10-fold, and 50 μL was placed into a 96-well plate. The total light scattering intensity at a 90° angle was collected using a 10 s averaging acquisition time. Particle translational diffusion coefficients were calculated from autocorrelated light intensity data (usually 30–40 points) and converted to the hydrodynamic radius (R h) using the Stokes–Einstein equation. A distribution plot of intensity versus R h was calculated using the Sedfit 9.3 analysis software, and intensity-weighted mean R h values were obtained from each peak.

Pancreatic INS-1E cells = experiment: MTT cytotoxicity assay of amylin aggregates aged with or without inhibitors; assay type: cell-based; conditions: for effect on INS-1E cell viability in presence of amylin: INS-1E cells cultured with the MTDLs
Method: In this study, we utilized Pancreatic INS-1E cells (Department of Cell Physiology and Metabolism, University Medical Center, Switzerland) due to their close physiological similarity to native β-cells, making them highly relevant to our experimental objectives. Pancreatic INS-1E cells were grown in RPMI 1640 medium, supplemented with 2 mM glutamine, 5% fetal calf serum, 10 mM HEPES (pH 7.4), 1 mM sodium pyruvate, 50 μM 2-mercaptoethanol, 100 units/mL penicillin, and 0.1 mg/mL streptomycin. The culturing environment was maintained at 37 °C, 5% CO2, pH 7.4.
The toxicity of human amylin aggregates in the presence or absence of different compounds in the presence of 2% DMSO was assessed by the 3-(4,5-dimethylthiazol-2-yl)-2,5-diphenyltetrazolium bromide (MTT) reduction assay. The cells were cultured and then seeded into 96-well plates and grown for 24 h prior to exposure to different intermediates of amylin or a mixture of amylin with the MTDLs. The final amylin concentration within the culture medium was 5 μM. Cell viability was expressed as the percentage of MTT reduction, using cells treated with the same buffer volume as a reference (100% MTT reduction). The values (averages ± S.D.) were obtained from three independent experiments.

Aβ = system: Aβ; set-up: method as in Panek et al.; conditions: based on ThT assay results; ref Panek et al.; read-out: IC50 of Aβ aggregation inhibition; cited from earlier work
human amylin (hIAPP) [2] = molecular target: T1, human amylin (hIAPP); experiment: Thioflavin T (ThT) fluorescence assay of amylin aggregation; assay type: biochemical; conditions: read-out: IC50 of amylin aggregation inhibition
human amylin (hIAPP) [3] = molecular target: T1, human amylin (hIAPP); experiment: Fluorescence quenching of amylin: Stern-Volmer, binding and thermodynamic analysis; conditions: for quenching of amylin's intrinsic fluorescence: compound 0 to 20 μM, excitation 275 nm; for Kd: read-out: K b (binding constant) (converted); for ΔH / ΔS: Van't Hoff plot, 25/30/37 °C
Method: The fluorescence emission scans (wavelengths 290 to 500 nm) of 10-fold diluted amylin samples were acquired with a PerkinElmer model LS 55. The excitation wavelength was set at 275 nm to observe the fluorescence of the tyrosine residue exclusively. The integrated spectrum from 290 to 450 nm was used to obtain the relative fluorescence values of Tyr. Fluorescence measurements were performed in 1 cm light-path quartz cuvettes, with both excitation and emission bandwidths set to 5 nm. Sample fluorescence was determined by subtracting the fluorescence of the buffer. Each experiment was performed in duplicate. ,
Quenching titrations with acrylamide were carried out by adding varying amounts of a quencher stock solution (5 M) to the protein solution (∼15 μM diluted 10-fold). , The excitation wavelength was set at 275 nm, and the fluorescence emission spectra were scanned from 275 to 500 nm using a PerkinElmer model LS 55. The emission and excitation slits were set to 5 and 10 nm, respectively, and a 1 cm cuvette was used for all experiments. According to the Stern–Volmer equation, the integration area between 290 and 450 nm was used for data analysis. , Before analyzing the quenching data, the fluorescence emission spectra were corrected for volume changes, scattering effects, and the inner filter effect due to acrylamide absorption. , Each experiment was performed in duplicate. The quenching mechanism analysis by the Stern–Volmer equation was calculated according to eq . F 0 is the fluorescence intensity without the quencher, and F is the intensity with a quencher. K sv is the Stern–Volmer quenching constant, while Q is the quencher concentration. K q is the biomolecular quenching constant, and τ0 is the average lifetime of the fluorophore. 1 F0/F=1+Ksv[Q]=1+Kqτ0[Q]
The parameter n obtained from the fit is treated as an apparent slope/exponent (heterogeneous populations and partial fluorophore accessibility) and is not interpreted as the literal number of binding sites. 2 log(F0−F)/F=logKb+nlog[Q]
The Van’t Hoff equation was used to calculate the various thermodynamic interaction parameters. Equation was implemented to calculate the free energy change. 3 lnKb=−ΔH^°/RT+ΔS^°/R 4 ΔG^°=ΔH^°−TΔS^°=−RTlnKb

| Structure (SMILES) | inhibition at 10 µM (human amylin (hIAPP) [1]) | effect on INS-1E cell viability in presence of amylin (Pancreatic INS-1E cells) | IC50 (Aβ) | IC50 (human amylin (hIAPP) [2]) | K q (quenching constant) (human amylin (hIAPP) [3]; 25 °C) | K sv (Stern–Volmer quenching constant) (human amylin (hIAPP) [3]; 25 °C) | n (apparent slope/exponent, binding sites) (human amylin (hIAPP) [3]; 25 °C) | ΔG (human amylin (hIAPP) [3]; 25 °C) | quenching of amylin's intrinsic fluorescence (human amylin (hIAPP) [3]; 25 °C) | Kd (human amylin (hIAPP) [3]; 25 °C) | K q (quenching constant) (human amylin (hIAPP) [3]; 30 °C) | K sv (Stern–Volmer quenching constant) (human amylin (hIAPP) [3]; 30 °C) | n (apparent slope/exponent, binding sites) (human amylin (hIAPP) [3]; 30 °C) | ΔG (human amylin (hIAPP) [3]; 30 °C) | Kd (human amylin (hIAPP) [3]; 30 °C) | K q (quenching constant) (human amylin (hIAPP) [3]; 37 °C) | K sv (Stern–Volmer quenching constant) (human amylin (hIAPP) [3]; 37 °C) | n (apparent slope/exponent, binding sites) (human amylin (hIAPP) [3]; 37 °C) | ΔG (human amylin (hIAPP) [3]; 37 °C) | Kd (human amylin (hIAPP) [3]; 37 °C) | further results |
| --- | --- | --- | --- | --- | --- | --- | --- | --- | --- | --- | --- | --- | --- | --- | --- | --- | --- | --- | --- | --- | --- |
| CC(C)(C)c1cccc(CNCC(O)CNCCC(c2ccccc2)c2ccccc2)c1 (stereo not drawn) [Compound 18] | 99.2 ± 6.5% | retained cell viability | 3.09 µM | 3.04 µM | 5.80 ± 0.17 10^12 M^–1 s^–1 | 3.43 ± 0.21 10^4 M^–1 | 0.60 ± 0.12 | –5.99 ± 0.10 kJ/mol | substantial quenching | 2500 µM | 4.57 ± 0.11 10^12 M^–1 s^–1 | 2.70 ± 0.39 10^4 M^–1 | 0.75 ± 0.10 | –6.99 ± 0.20 kJ/mol | 769 µM | 3.90 ± 0.12 10^12 M^–1 s^–1 | 2.30 ± 0.18 10^4 M^–1 | 0.92 ± 0.10 | –8.38 ± 0.30 kJ/mol | 286 µM | cell viability difference versus the sample with amylin fibrils (Pancreatic INS-1E cells; INS-1E cells 24 h, amylin aggregates aged 36 h with 2.92 μM compound 18 or 3.31 μM compound 21): approximately 30 % points; ΔH (human amylin (hIAPP) [3]): 53.31 ± 4.90 kJ/mol; ΔS (human amylin (hIAPP) [3]): 199.00 ±14.13 J/mol K |
| CC(C)(C)c1cccc(CNCC(O)CCNCCC(c2ccccc2)c2ccccc2)c1 (stereo not drawn) [Compound 22] | 99.2 ± 6.8% | retained cell viability | 1.22 µM | 2.71 µM | 5.67 ± 0.16 10^12 M^–1 s^–1 | 3.35 ± 0.18 10^4 M^–1 | 0.80 ± 0.15 | –5.05 ± 0.27 kJ/mol | substantial quenching | 1000 µM | 3.89 ± 0.11 10^12 M^–1 s^–1 | 2.30 ± 0.27 10^4 M^–1 | 1.06 ± 0.10 | –7.19 ± 0.17 kJ/mol | 20.9 µM | 2.88 ± 0.12 10^12 M^–1 s^–1 | 1.70 ± 0.13 10^4 M^–1 | 1.15 ± 0.15 | –10.23 ± 0.41 kJ/mol | 10.7 µM | cell viability difference versus oleuropein aglycone (Pancreatic INS-1E cells; INS-1E cells 24 h, amylin aggregates aged 36 h with compound): around 8 % points; cell viability (MTT reduction) (Pancreatic INS-1E cells; INS-1E cells 24 h with amylin aggregates aged 36 h in presence of compound (2.61 μM of compound 22)): ~93%; cell viability higher than that of the control (Pancreatic INS-1E cells; cytotoxicity assay, discussion statement): ~40%; ΔH (human amylin (hIAPP) [3]): 124.00 ± 4.50 kJ/mol; ΔS (human amylin (hIAPP) [3]): 433.00 ± 9.13 J/mol K |
